# Data published in patent publication US6369003B1, “Process and composition for soil improvement by reducing microbially formed ethylene in the soil” (BASF Aktiengesellschaft, priority 1994, dated 2002).
# Where two headings read alike, the source gives them in different places.
# Legend:
# mutant EZ (Sym5) of peas = details: severely reduced nodule formation of the mutant; Fearn and La Rue 1991; cited from earlier work
# parent strain Sparkle = details: Fearn and La Rue 1991; cited from earlier work
# pea variety Sparkle = details: nodule formation reduced by provision of light in the root area; Lee and La Rue; cited from earlier work
# [1] = test system: pea varieties Sparkle and Rondo; details: Lee and La Rue, cited from earlier work
# white sweetclover = details: 0.07 μl/l of ethylene gas/l of air; Lee and La Rue; cited from earlier work
# soybean plants = details: even at distinctly higher ethylene administration; Lee and La Rue; cited from earlier work
# [2] = test system: Soybean plants (Delta Pine 415); experiment: Soybeans test 3c: root nodules and total N, greenhouse; type: in vivo, Glycine max; details: for Nodules: untreated 46
# Description: In these tests various types of non-sterile soils were used. The cultivation of the plants was carried out under greenhouse or climatic chamber conditions. The active compounds according to the invention were applied uniformly distributed over the soil surface in an aqueous preparation after the emergence of the respective test plants. The supply of water for the plants was carrried out using the same technique, always paying attention to uniform moistness of the soil. In the case of the cultivation of legumes, defined amounts of species-specific Rhizobia were admixed to the soil. In some cases inoculation was also carried out by seed treatment.
# a) Soybean plants (Delta Pine 415) were cultivated under greenhouse conditions in low N Limburgerhof soil in plastic pots (500 ml) and watered from above as required. A few days after emergence the plants were thinned out to 5 plants per pot.
# In 8 pots in each case per test member an aqueous active compound solution of 2.3.1.3 was applied by watering. 16 pots remained untreated in each case.
# c) Test procedure as in 3 a)
# [3] = 0.030 mg of a.s./pot; procedure as in 3 a)
# [4] = 0.300 mg of a.s./pot; procedure as in 3 a)
Structure (SMILES),nodule formation (mutant EZ (Sym5) of peas),nodulation (parent strain Sparkle),"Total N (shoots + root) [2, 3]","Nodules [2, 3]","Total N (shoots + root) [2, 4]","Nodules [2, 4]",further results
O=[N+]([O-])[O-].O=[N+]([O-])[O-].[Co+2] [Co(NO3)2],partially restored,not affected,–,–,–,–,–
O=S(=O)([O-])[O-].[Ag+].[Ag+] [Ag2SO4],partially restored,not affected,–,–,–,–,"nodule formation (pea variety Sparkle): reverse the reduced nodule formation by light; nodule formation ([1]; peas (Sparkle), in the presence of ethylene): normal nodule formation could be restored"
C=C [ethylene],–,–,–,–,–,–,nodule formation (white sweetclover): severe reduction in nodule formation; nodulation (soybean plants): no significant effect on nodulation; nodule formation ([1]; 0.07 μl/l of ethylene gas/l of air): severe reduction in nodule formation
CC(C)OCOC(=O)CON=C1CCCCC1 [active compound 2.3.1.5],–,–,104 % of control,70 number/pot,107 % of control,61 number/pot,–
CCCCCCOC(=O)CON=C(C)C [active compound 2.3.1.4],–,–,103 % of control,55 number/pot,110 % of control,66 number/pot,–
